Assay results published in US20250320213A1, “Nitrogen-Containing Heterocyclic Compounds” (Pfizer Inc., priority 2024, published 2025).
Like-named read-outs stand apart in the source and are kept apart here.

Assays:
[1] = tested on: CCL17 secretion in peripheral human whole blood; assay: Human Whole Blood (HWB) CCL17 TR-FRET Assay (IL-13 stimulated CCL17 secretion); assay type: cell-based
In short: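 Compounds are titrated (11 points, 3-fold, duplicate) into fresh heparinized human whole blood and held 2 h at 37 °C before IL-13 challenge (10 ng/mL final). After 48 h at 37 °C, serum CCL17 is measured by TR-FRET sandwich assay and IC50 values are calculated.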

STAT6 = target: T1, STAT6 (Homo sapiens, UniProt P42226); assay: STAT6 Reporter Luciferase Assay (IL-13 stimulated HaCaT keratinocyte NanoLuc reporter cells); assay type: cell-based; conditions: read-out: Reporter EC50
T1 construct: stably transfected HaCaT keratinocyte cell line, which expresses NanoLuc luciferase reporter gene under the transcriptional control of the STAT6 responsive promoter; endogenous in cells; host or cells: HaCaT keratinocyte reporter cell line (stably transfected with a NanoLuc reporter)
T1 sequence (P42226 1-847): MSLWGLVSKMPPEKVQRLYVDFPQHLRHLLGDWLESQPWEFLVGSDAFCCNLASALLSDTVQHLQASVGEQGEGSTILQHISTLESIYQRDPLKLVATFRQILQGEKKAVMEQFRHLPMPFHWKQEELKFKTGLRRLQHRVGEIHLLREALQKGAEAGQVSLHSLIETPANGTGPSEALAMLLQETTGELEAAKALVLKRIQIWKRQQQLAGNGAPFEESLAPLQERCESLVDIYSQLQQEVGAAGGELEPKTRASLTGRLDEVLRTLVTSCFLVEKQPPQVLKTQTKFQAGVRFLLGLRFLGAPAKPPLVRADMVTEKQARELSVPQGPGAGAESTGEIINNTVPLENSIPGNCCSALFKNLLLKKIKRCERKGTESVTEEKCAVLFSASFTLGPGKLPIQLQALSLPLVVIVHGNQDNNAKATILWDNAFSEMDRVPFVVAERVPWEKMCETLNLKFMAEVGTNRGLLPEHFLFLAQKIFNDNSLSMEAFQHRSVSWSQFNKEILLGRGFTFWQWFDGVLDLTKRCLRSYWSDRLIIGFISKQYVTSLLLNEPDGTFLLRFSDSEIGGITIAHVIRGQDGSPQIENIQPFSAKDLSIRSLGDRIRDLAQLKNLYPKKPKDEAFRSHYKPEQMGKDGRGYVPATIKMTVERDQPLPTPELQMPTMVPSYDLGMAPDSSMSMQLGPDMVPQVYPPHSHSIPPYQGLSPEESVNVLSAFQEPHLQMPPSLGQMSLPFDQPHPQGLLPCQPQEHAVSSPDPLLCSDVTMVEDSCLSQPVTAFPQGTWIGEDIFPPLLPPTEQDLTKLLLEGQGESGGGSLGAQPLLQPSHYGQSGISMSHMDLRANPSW
In short: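 Stably transfected HaCaT cells carrying NanoLuc under the STAT6-responsive IL-13Ra2 promoter were pre-treated with compound (11-point, 4-fold series, duplicate) for 2 h at 37 °C, then stimulated with 0.12 nM IL-13 for 4 h. Nano-Glo luminescence was read after 15 min.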

[2] = IL-13 stimulated HaCaT STAT6 NanoLuc reporter cells
[3] = Homo sapiens, 48 h, inhibition of CCL17 secretion in human whole blood, 10 ng/mL IL13, 48 hours
[4] = STAT6 NanoLuc luciferase reporter, IL-13 stimulated HaCaT keratinocyte cells
[5] = Homo sapiens, 48 h, human whole blood, IL-13 10 ng/mL
[6] = Homo sapiens, 48 h, human whole blood, IL-13 stimulated

Row | SMILES | EC50 (STAT6; [2]) [nM] | IC50 [1, 3] [nM] | EC50 (STAT6; [4]) [nM] | also measured
1 | CCOC(=O)Nc1ccc(CNC(=O)c2nn(C(C)C)c3c2CN(c2ccc(C(=O)N(C)C)cn2)CC3)cc1 [Example 236, Ethyl (4-((5-(5-(dimethylcarbamoyl)pyridin-2-yl)-1-isopropyl-4,5,6,7-tetrahydro-1H-pyrazolo[4,3-c]pyridine-3-carboxamido)methyl)phenyl)carbamate] | 17 | – | – | IC50 ([1]; human whole blood, IL-13 stimulated, 48 hours): 254 nM
2 | CC(C)n1nc(C(=O)NCc2ccc(-c3cccc(=O)[nH]3)cc2)c2c1CCN(c1ccc(C(=O)N(C)C)cn1)C2 [Example 44, 5-(5-(dimethylcarbamoyl)pyridin-2-yl)-1-isopropyl-N-(4-(6-oxo-1,6-dihydropyridin-2-yl)benzyl)-4,5,6,7-tetrahydro-1H-pyrazolo[4,3-c]pyridine-3-carboxamide] | – | 5400 | 503 | –
3 | CNC(=O)c1ccc(CNC(=O)c2nc(C3CC3)n3c2CN(c2ccc(C(=O)N(C)C)cn2)CC3)cc1 [Example 16, 3-cyclopropyl-7-(5-(dimethylcarbamoyl)pyridin-2-yl)-N-(4-(methylcarbamoyl)benzyl)-5,6,7,8-tetrahydroimidazo[1,5-a]pyrazine-1-carboxamide] | – | 791 | 261 | –
4 | CN[C@@H]1CCN(C(=O)Nc2ccc(CNC(=O)c3nn(C(C)C)c4c3CN(c3ccc(C(=O)N(C)C)cc3)C[C@@H]4C)cc2)C1 [Example 722, (S)-5-(4-(dimethylcarbamoyl)phenyl)-1-isopropyl-7-methyl-N-(4-((R)-3-(methylamino)pyrrolidine-1-carboxamido)benzyl)-4,5,6,7-tetrahydro-1H-pyrazolo[4,3-c]pyridine-3-carboxamide] | 8 | – | – | IC50 [1, 5]: 40 nM
5 | CC(C)n1nc(C(=O)NCc2ccc(C(N)=O)cc2)c2c1[C@@H](C)CN(c1ccc(N3CCCC3=O)cn1)C2 [Example 479, (S)-N-(4-carbamoylbenzyl)-1-isopropyl-7-methyl-5-(5-(2-oxopyrrolidin-1-yl)pyridin-2-yl)-4,5,6,7-tetrahydro-1H-pyrazolo[4,3-c]pyridine-3-carboxamide] | 4 | – | – | IC50 [1, 6]: 15 nM
6 | CC(C)n1nc(C(=O)NCc2ccc(NC(=O)N3CC[C@H](F)C3)cc2)c2c1CCN(c1ccc(C(=O)N(C)C)cn1)C2 [Example 153, (S)-5-(5-(dimethylcarbamoyl)pyridin-2-yl)-N-(4-(3-fluoropyrrolidine-1-carboxamido)benzyl)-1-isopropyl-4,5,6,7-tetrahydro-1H-pyrazolo[4,3-c]pyridine-3-carboxamide] | – | 108 | 11 | –
7 | Cc1nccc(-c2ccc(CNC(=O)c3nn(C(C)C)c4c3CN(c3ccc(C(=O)N(C)C)cc3)C[C@@H]4C)cc2)n1 [Example 728, (S)-5-(4-(dimethylcarbamoyl)phenyl)-1-isopropyl-7-methyl-N-(4-(2-methylpyrimidin-4-yl)benzyl)-4,5,6,7-tetrahydro-1H-pyrazolo[4,3-c]pyridine-3-carboxamide] | 231 | – | – | IC50 [1, 5]: 4210 nM
8 | CC(C)n1nc(C(=O)NCc2ccc(NC(=O)N(C)C)cc2)c2c1CC(C(F)(F)F)N(c1ccc(C(=O)N(C)C)cn1)C2 (racemic) [Example 255, rac-(R)-5-(5-(dimethylcarbamoyl)pyridin-2-yl)-N-(4-(3,3-dimethylureido)benzyl)-1-isopropyl-6-(trifluoromethyl)-4,5,6,7-tetrahydro-1H-pyrazolo[4,3-c]pyridine-3-carboxamide] | 3 | – | – | IC50 [1, 6]: 48 nM
9 | CC(C)n1nc(C(=O)NCc2ccc(NC(=O)N(C)C)cc2)c2c1CCN(c1ccc(N3C(=O)CC[C@H]3CO)cn1)C2 [Example 69, (S)-N-(4-(3,3-dimethylureido)benzyl)-5-(5-(2-(hydroxymethyl)-5-oxopyrrolidin-1-yl)pyridin-2-yl)-1-isopropyl-4,5,6,7-tetrahydro-1H-pyrazolo[4,3-c]pyridine-3-carboxamide] | – | 8110 | 1070 | –
